Patent publication US8609711B2, “Crystalline N-{(1S)-2-amino-1-[(3-fluorophenyl)methyl]ethyl}-5-chloro-4-(4-chloro-1-methyl-1H-pyrazol-5-yl)-2-thiophenecarboxamic hydrochloride” (GlaxoSmithKline LLC, priority 2009, dated 2013)
“Also recorded” adds a separate entry of the source.

Assay: Hygroscopicity, VTI instrument SGA 100
Conditions: for weight increase (moisture): 25 °C; for hygroscopicity (in words): hydrochloride
Text: There were 24 Relative Humidity steps used. The Relative Humidity at each step is as follows.

weight increase (moisture) (no drying, 24 relative humidity steps between 5 and 90, max equilibrium time 240 min)	weight increase (moisture) (drying at 60 °C, 19 relative humidity steps between 0 and 90, max equilibrium time 300 min)	SMILES	hygroscopicity (in words)
less than 1 % w/w	–	Cl.Cn1ncc(Cl)c1-c1cc(C(=O)N[C@H](CN)Cc2cccc(F)c2)sc1Cl [Compound A]	non-hygroscopic; also recorded: low level of hygroscopicity
–	more than 18 % w/w	Cl.Cn1ncc(Cl)c1-c1cc(C(=O)N[C@H](CN)Cc2cccc(F)c2)sc1Cl [Example 3]	hygroscopic; also recorded: high level of hygroscopicity
